Reference: patent US12171833B2, “Mucoadhesive polymeric drug delivery compositions and methods” (The University of British Columbia, priority 2020, dated 2024)

Experiments:
[1] = 30 min IV infusion, cited from earlier work
[2] = In vitro drug release from formulation A (dialysis mini chamber, PBS, 37° C.); type: physicochemical; settings: 100 mg, PBS pH 7.4, 37° C., up to 30 hours
Procedure: Formulation A of PLGA 5%, HA 3%, PEG 92% was made up as described in TABLE 8. […] For the protein study the mini chamber was not closed but a small retaining sponge applied. The chamber was placed in 5 mL of PBS (pH 7.4 or PBS containing albumin to increase the solubility of docetaxel) and placed in an incubator at 37° C.

For `Nc1ccn([C@@H]2O[C@H](CO)[C@@H](O)C2(F)F)c(=O)n1` [gemcitabine], which AUC0-inf ([1]; 1250 mg/m^2 (32.1 mg/kg), literature) is on record?
The AUC0-inf was 12500 ng·h/mL.

And the kel ([1]; 1250 mg/m^2, literature)?
Its kel is 3.18 h⁻¹.

And the “t1/2 (terminal)” value ([1]; 1250 mg/m^2, literature)?
Its value is 13.8 min.

What about the “drug release from paste” value [2] of the same compound?
Its value is “faster than the other two agents”.
